pIC50: −log10 of the molar value.
Test system: Human monocyte cell line THP-1
Assay: Detection of THP-1 cell pyroptosis (Caspase-Glo 1 Inflammasome Assay)
Format: cell-based
Conditions: Homo sapiens, THP-1, THP-1 pyroptosis, 20 nM PMA 48 h, 1 μg/mL LPS, compound 3 h
Protocol: Human monocyte cell line THP-1 (ATCC® TB-202TM) was cultured in RPMI-1640 culture medium containing […], 1 mM pyruvic acid, 0.05 mM β-mercaptoethanol and 10% double antibody under the culture conditions of 37° C. and […].
Cell counting was performed, THP-1 cells were seeded into a 96-well plate at 50000 per well, and 20 nM PMA was added for inducing at 37° C./5% CO2 for 48 h. The culture medium was then discarded, and 100 μL of serum-free RPMI-1640 medium containing 1 μg/mL LPS was added. 5 μL of compound or solvent control was added and 3-fold diluted in gradient from a maximum concentration of 10 μM, and 10 gradient concentrations were set. The mixtures were incubated at 37° C./5% CO2 for 3 h. After the incubation, the mixtures were centrifuged at 300 g for 5 min, and the culture medium was discarded. Pyroptosis assay was performed according to specific steps described in instructions of Caspase-Glo® 1 Inflammasome Assay kit. IC50 was calculated using GraphPad Prism7.0 software.

How did the pIC50 turn out when `CC(C)(O)c1coc(S(=O)(=O)NC(=O)Nc2c(C(C3CC3)C3CC3)ccc3c2CCC3)c1` [Compound 86, N-((5-(dicyclopropylmethyl)-2,3-dihydro-1H-inden-4-yl)carbamoyl)-4-(2-hydroxypropan-2-yl)furan-2-sulfonamide] was run?
Its pIC50 is 6.00 to 6.30.

`O=C(Nc1c(CC2CCC2)ccc2c1CCC2)NS(=O)(=O)c1cc(C2(O)CC2)co1` [Compound 61, N-((5-(cyclobutylmethyl)-2,3-dihydro-1H-inden-4-yl)carbamoyl)-4-(1-hydroxycyclopropyl)furan-2-sulfonamide] was tested. Which pIC50 did it give?
The pIC50 was 5.30 to 6.00.

How did the pIC50 turn out when `C[C@H](c1ccc2c(c1NC(=O)N[S@@](=N)(=O)c1cc(C(C)(C)O)cs1)CCC2)C1CC1` [Compound 54-1] was run?
Its pIC50 is 5.30 to 6.00.

`C[C@H](c1ccc2c(c1NC(=O)N[S@](=N)(=O)c1cc(C(C)(C)O)cs1)CCC2)C1CC1` [Compound 54-2] was tested. Which pIC50 did it give?
The pIC50 was 6.30 to 7.00.

`C[C@H](c1ccc2c(c1NC(=O)NS(=O)(=O)c1cnc(C(C)(C)O)s1)CCC2)C1CC1` [Compound 88, (S)-N-((5-(1-cyclopropylethyl)-2,3-dihydro-1H-inden-4-yl)carbamoyl)-2-(2-hydroxypropan-2-yl)thiazole-5-sulfonamide] was tested. Which pIC50 did it give?
Its pIC50 is 6.30 to 7.00.

`CC(C)(O)c1csc(S(=N)(=O)NC(=O)Nc2c(CC3CCC3)ccc3c2CCC3)c1` (centres unmarked) [Compound 83A, N-((5-(cyclobutylmethyl)-2,3-dihydro-1H-inden-4-yl)carbamoyl)-4-(2-hydroxypropan-2-yl)thiophene-2-sulfonimidamide] was tested. Which pIC50 did it give?
The pIC50 was ≥ 7.00.

`CC(C)c1cccc([C@H](C)C2CC2)c1NC(=O)NS(=O)(=O)c1cc(C(C)(C)O)co1` [Compound 72] was tested. Which pIC50 did it give?
Its pIC50 is 6.30 to 7.00.

Same assay, conditions: THP-1 pyroptosis, 20 nM PMA 48 h, 1 μg/mL LPS, compound 3 h

How did the pIC50 turn out when `CC(c1ccc2c(c1NC(=O)NS(=N)(=O)c1cnc(C(C)(C)O)s1)CCC2)C1CC1` (racemic) [Compound 20-2, (RS, SC)- and (SS, SC)-N-((5-(1-cyclopropylethyl)-2,3-dihydro-1H-inden-4-yl)carbamoyl)-2-(2-hydroxypropan-2-yl)thiazole-5-sulfonimidamide] was run?
The pIC50 was 6.30 to 7.00.

How did the pIC50 turn out when “(RS, SC)- and (SS, SC)-N-((5-(1-cyclopropylethyl)-2,3-dihydro-1H-inden-4-yl)carbamoyl)-4-(2-hydroxypropan-2-yl-1,1,1,3,3,3-d6)furan-2-sulfonimidamide [Compound 49-1]” was run?
Its pIC50 is 6.30 to 7.00.

`CC(c1cc(C#N)c2c(c1NC(=O)NS(=N)(=O)c1cc(C(C)(C)O)co1)CCC2)C1CC1` (racemic) [Compound 48-1, (RS, SC)- and (SS, SC)-N-((7-cyano-5-(1-cyclopropylethyl)-2,3-dihydro-1H-inden-4-yl)carbamoyl)-4-(2-hydroxypropan-2-yl)furan-2-sulfonimidamide] was tested. Which pIC50 did it give?
The pIC50 was 6.30 to 7.00.

`CC(C)c1cccc([C@@H](C)C2CC2)c1NC(=O)NS(=N)(=O)c1cc(C(C)(C)O)co1` (mixture of isomers) [Compound 73-2, (RS, SC) and (SS, SC)-N-((2-(1-cyclopropylethyl)-6-isopropylphenyl)carbamoyl)-4-(2-hydroxypropan-2-yl)furan-2-sulfonimidamide] was tested. Which pIC50 did it give?
Its pIC50 is 5.30 to 6.00.

With `C[C@@H](c1ccc2c(c1NC(=O)NS(=N)(=O)c1cc(C(C)(C)O)co1)CC2)C1CC1` (mixture of isomers) [Compound 38-2, RS- and SS-N-((3-((R)-1-cyclopropylethyl)bicyclo[4.2.0]octa-1(6),2,4-trien-2-yl)carbamoyl)-4-(2-hydroxypropan-2-yl)furan-2-sulfonimidamide] as the compound, how does the pIC50 read?
Its pIC50 is 5.30 to 6.00.

With “(RS, RC)- and (SS, RC)-N-((5-(1-cyclopropylethyl)-2,3-dihydro-1H-inden-4-yl-7-d)carbamoyl)-4-(2-hydroxypropan-2-yl)furan-2-sulfonimidamide [Compound 31-1]” as the compound, how does the pIC50 read?
The pIC50 was 6.30 to 7.00.

How did the pIC50 turn out when `CC(c1ccc2c(c1NC(=O)NS(=N)(=O)c1cc(C(C)(C)O)co1)CC2)C1CC1` (racemic) [Compound 36-2, (RS, SC)- and (SS, SC)-N-((3-(1-cyclopropylethyl)bicyclo[4.2.0]octa-1(6),2,4-trien-2-yl)carbamoyl)-4-(2-hydroxypropan-2-yl)furan-2-sulfonimidamide] was run?
The pIC50 was 5.30 to 6.00.

From patent publication US11976054B2, “Amide derivative and preparation method therefore and use thereof in medicine” (Chengdu Baiyu Pharmaceutical Co., Ltd., priority 2019, dated 2024)
